This is an account of results in patent publication US20070128217A1 (priority 2003, published 2007).

For experiment [1], the system named is antibodies in sera from SARS patients (sera 1a, 1b, 2, 6, 37, 62, London, SARS-yellow, SARS-green). Type of experiment: binding, human. Also on record: Binding of serum 6 to linear peptides of protein X1 of SARS-CoV Urbani / Binding of serum 37 to linear peptides of protein X1 of SARS-CoV Urbani / Binding of serum 6 to looped/cyclic peptide (PEPSCAN-ELISA) / Binding of serum 37 to looped/cyclic peptide (PEPSCAN-ELISA) / Binding of serum 37 to looped/cyclic peptides of protein X1 of SARS-CoV Urbani / Binding of serum 6 to linear peptides of protein X2 / Binding of serum 37 to linear peptides of protein X2 / Binding of serum 37 to looped/cyclic peptides of protein X2 of SARS-CoV Urbani / Binding of serum 6 to linear peptides of protein M of SARS-CoV Urbani / Binding of serum 37 to linear peptides of protein M of SARS-CoV Urbani / Binding of serum 6 to looped/cyclic peptides of protein M of SARS-CoV Urbani / Binding of serum 37 to looped/cyclic peptides of protein M of SARS-CoV Urbani / Binding of serum 6 to linear peptides of protein X3 of SARS-CoV Urbani / Binding of serum 37 to linear peptides of protein X3 of SARS-CoV Urbani / Binding of serum 37 to looped/cyclic peptides of protein X3 of SARS-CoV Urbani / Binding of serum 6 to linear peptides of protein X4 of SARS-CoV Urbani / Binding of serum 37 to linear peptides of protein X4 of SARS-CoV Urbani / Binding of serum 37 to looped/cyclic peptides of protein X4 of SARS-CoV Urbani / Binding of serum 6 to linear peptides of protein X5 of SARS-CoV Urbani / Binding of serum 37 to linear peptides of protein X5 of SARS-CoV Urbani / Binding of serum 37 to looped/cyclic peptides of protein X5 of SARS-CoV Urbani / Binding of serum 6 to linear peptides of protein N of SARS-CoV Urbani / Binding of serum 37 to linear peptides of protein N of SARS-CoV Urbani / Binding of serum 6 to linear peptide (PEPSCAN-ELISA) / Binding of serum 1a to looped/cyclic peptides of protein N of SARS-CoV Urbani / Binding of serum 1b to looped/cyclic peptides of protein N of SARS-CoV Urbani / Binding of serum 2 to looped/cyclic peptides of protein N of SARS-CoV Urbani / Binding of serum 6 to looped/cyclic peptides of protein N of SARS-CoV Urbani / Binding of serum 37 to looped/cyclic peptides of protein N of SARS-CoV Urbani / Binding of serum 62 to looped/cyclic peptides of protein N of SARS-CoV Urbani / Binding of serum London to looped/cyclic peptides of protein N of SARS-CoV Urbani / Binding of serum SARS-green to looped/cyclic peptides of protein N of SARS-CoV Urbani: unit not given here.

Experiment [2] deals with rabbit serum obtained by immunizing a rabbit with the SARS-CoV strain Frankfurt 1. Type of experiment: binding. More on the design: Binding of a rabbit serum to linear peptides / Binding of a rabbit serum to looped peptides / Rabbit serum linear peptides / Rabbit serum looped peptides / Binding of a rabbit serum to linear peptides of protein N of SARS-CoV Urbani (Rabbit serum linear peptides) / Binding of a rabbit serum to looped/cyclic peptides of protein N of SARS-CoV Urbani (Rabbit serum looped peptides): unit not given here.

For experiment [3], the system named is control sera (pooled serum of ten healthy LUMC hospital workers; commercial negative donor pooled serum from the Dutch bloodbank). Type of experiment: binding, human. Also on record: Binding of Control serum LUMC to linear peptides / Binding of Control serum Blood-bank to linear peptides / Binding of Control serum LUMC to looped peptides / Binding of Control Serum Blood-Bank to Looped peptides / Binding of Control serum LUMC to linear peptides of the protein M of SARS-CoV Urbani / Binding of Control serum Blood-bank to linear peptides of the protein M of SARS-CoV Urbani / Binding of Control serum LUMC to looped peptides of the protein M of SARS-CoV Urbani / Binding of Control Serum Blood-Bank to Looped peptides of the protein M of SARS-CoV Urbani: unit not given here.

Take LYMAISPKFTTSLSL: in experiment [1], the “Binding of serum 1a to linear peptides of protein X2” value amounted to 0.7, the “Binding of serum 1a to looped/cyclic peptides of protein X2 of SARS-CoV Urbani” value was 0.6, the “Binding of serum 1b to linear peptides of protein X2” value turned out to be 0.5 and the “Binding of serum 1b to looped/cyclic peptides of protein X2 of SARS-CoV Urbani” value came out at 0.5. Moreover, in experiment [1], the “Binding of serum 2 to linear peptides of protein X2” value was determined as 0.5, the “Binding of serum 2 to looped/cyclic peptides of protein X2 of SARS-CoV Urbani” value came to 0.5, the “Binding of serum 6 to linear peptides of protein X2” value is on record as 0.3 and the “Binding of serum 6 to looped/cyclic peptides of protein X2 of SARS-CoV Urbani” value is 0.5. Further, in experiment [1], the “Binding of serum 37 to linear peptides of protein X2” value is on record as 0.6, the “Binding of serum 37 to looped/cyclic peptides of protein X2 of SARS-CoV Urbani” value is 0.5, the “Binding of serum 62 to linear peptides of protein X2” value came out at 0.6 and the “Binding of serum 62 to looped/cyclic peptides of protein X2 of SARS-CoV Urbani” value was 0.7. In experiment [1], the “Binding of serum London to linear peptides of protein X2” value is 0.3, the “Binding of serum London to looped/cyclic peptides of protein X2 of SARS-CoV Urbani” value is 0.6, the “Binding of serum SARS-green to linear peptides of protein X2” value worked out at 0.5 and the “Binding of serum SARS-green to looped/cyclic peptides of protein X2 of SARS-CoV Urbani” value stood at 0.4. Further, in experiment [1], the “Binding of serum SARS-yellow to linear peptides of protein X2” value is given as 0.6 and the “Binding of serum SARS-yellow to looped/cyclic peptides of protein X2 of SARS-CoV Urbani” value turned out to be 0.5. In addition, in experiment [2], the “Binding of a rabbit serum to linear peptides” value was 0.3 and the “Binding of a rabbit serum to looped peptides” value amounted to 0.5. For the same sequence, in experiment [3], the “Binding of Control Serum Blood-Bank to Looped peptides” value is on record as 0.7, the “Binding of Control serum Blood-bank to linear peptides” value is on record as 0.6, the “Binding of Control serum LUMC to linear peptides” value is 0.3 and the “Binding of Control serum LUMC to looped peptides” value worked out at 0.8.
Turning to MCKYTQSTALQELLI, in experiment [1], the “Binding of serum 1a to linear peptides of protein X2” value worked out at 0.8, the “Binding of serum 1a to looped/cyclic peptides of protein X2 of SARS-CoV Urbani” value is 0.6, the “Binding of serum 1b to linear peptides of protein X2” value came out at 0.7 and the “Binding of serum 1b to looped/cyclic peptides of protein X2 of SARS-CoV Urbani” value stood at 0.6. Besides, in experiment [1], the “Binding of serum 2 to linear peptides of protein X2” value is reported as 0.6, the “Binding of serum 2 to looped/cyclic peptides of protein X2 of SARS-CoV Urbani” value is on record as 0.5, the “Binding of serum 6 to linear peptides of protein X2” value turned out to be 0.5 and the “Binding of serum 6 to looped/cyclic peptides of protein X2 of SARS-CoV Urbani” value was determined as 0.3. In experiment [1], the “Binding of serum 37 to linear peptides of protein X2” value is 0.6, the “Binding of serum 37 to looped/cyclic peptides of protein X2 of SARS-CoV Urbani” value was 0.7, the “Binding of serum 62 to linear peptides of protein X2” value came out at 0.8 and the “Binding of serum 62 to looped/cyclic peptides of protein X2 of SARS-CoV Urbani” value was found to be 0.8. Besides, in experiment [1], the “Binding of serum London to linear peptides of protein X2” value was 0.5, the “Binding of serum London to looped/cyclic peptides of protein X2 of SARS-CoV Urbani” value was 0.2, the “Binding of serum SARS-green to linear peptides of protein X2” value stood at 0.8 and the “Binding of serum SARS-green to looped/cyclic peptides of protein X2 of SARS-CoV Urbani” value was 0.7. Moreover, in experiment [1], the “Binding of serum SARS-yellow to linear peptides of protein X2” value turned out to be 0.7 and the “Binding of serum SARS-yellow to looped/cyclic peptides of protein X2 of SARS-CoV Urbani” value was 0.4. In addition, in experiment [2], the “Binding of a rabbit serum to linear peptides” value was 0.2 and the “Binding of a rabbit serum to looped peptides” value stood at 0.4. Moreover, in experiment [3], the “Binding of Control Serum Blood-Bank to Looped peptides” value worked out at 0.8, the “Binding of Control serum Blood-bank to linear peptides” value was 0.9, the “Binding of Control serum LUMC to linear peptides” value came out at 0.7 and the “Binding of Control serum LUMC to looped peptides” value is reported as 0.7.
Regarding MCLKILVRYNTRGNT, in experiment [1], the “Binding of serum 1a to linear peptides of protein X5 of SARS-CoV Urbani” value turned out to be 0.8, the “Binding of serum 1a to looped/cyclic peptides of protein X5 of SARS-CoV Urbani” value amounted to 0.5, the “Binding of serum 1b to linear peptides of protein X5 of SARS-CoV Urbani” value turned out to be 0.6 and the “Binding of serum 1b to looped/cyclic peptides of protein X5 of SARS-CoV Urbani” value is reported as 0.3. Further, in experiment [1], the “Binding of serum 2 to linear peptides of protein X5 of SARS-CoV Urbani” value stood at 0.8, the “Binding of serum 2 to looped/cyclic peptides of protein X5 of SARS-CoV Urbani” value stood at 0.5, the “Binding of serum 6 to linear peptides of protein X5 of SARS-CoV Urbani” value is listed as 1.4 and the “Binding of serum 6 to looped/cyclic peptides of protein X5 of SARS-CoV Urbani” value was 0.4. For the same sequence, in experiment [1], the “Binding of serum 37 to linear peptides of protein X5 of SARS-CoV Urbani” value is given as 0.9, the “Binding of serum 37 to looped/cyclic peptides of protein X5 of SARS-CoV Urbani” value is 0.5, the “Binding of serum 62 to linear peptides of protein X5 of SARS-CoV Urbani” value was 0.9 and the “Binding of serum 62 to looped/cyclic peptides of protein X5 of SARS-CoV Urbani” value worked out at 0.7. Besides, in experiment [1], the “Binding of serum London to linear peptides of protein X5 of SARS-CoV Urbani” value is on record as 0.8, the “Binding of serum London to looped/cyclic peptides of protein X5 of SARS-CoV Urbani” value came out at 0.4, the “Binding of serum SARS-green to linear peptides of protein X5 of SARS-CoV Urbani” value stood at 0.9 and the “Binding of serum SARS-green to looped/cyclic peptides of protein X5 of SARS-CoV Urbani” value turned out to be 0.2. Also, in experiment [1], the “Binding of serum SARS-yellow to linear peptides of protein X5 of SARS-CoV Urbani” value was 0.7 and the “Binding of serum SARS-yellow to looped/cyclic peptides of protein X5 of SARS-CoV Urbani” value was found to be 0.8. Moreover, in experiment [2], the “Rabbit serum linear peptides” value was found to be 0.7 and the “Rabbit serum looped peptides” value is 0.5. Besides, in experiment [3], the “Binding of Control Serum Blood-Bank to Looped peptides” value is given as 0.4, the “Binding of Control serum Blood-bank to linear peptides” value turned out to be 0.8, the “Binding of Control serum LUMC to linear peptides” value was determined as 0.6 and the “Binding of Control serum LUMC to looped peptides” value was 0.5.
Take MDLFMRFFTLGSITA: in experiment [1], the “Binding of serum 1a to linear peptides of protein X1 of SARS-CoV Urbani” value was found to be 0.8, the “Binding of serum 1a to looped/cyclic peptide (PEPSCAN-ELISA)” value came to 0.5, the “Binding of serum 1b to linear peptides of protein X1 of SARS-CoV Urbani” value amounted to 0.7 and the “Binding of serum 1b to looped/cyclic peptide (PEPSCAN-ELISA)” value stood at 0.3. Moreover, in experiment [1], the “Binding of serum 2 to linear peptides of protein X1 of SARS-CoV Urbani” value was found to be 0.7, the “Binding of serum 2 to looped/cyclic peptide (PEPSCAN-ELISA)” value was 0.4, the “Binding of serum 6 to linear peptides of protein X1 of SARS-CoV Urbani” value amounted to 0.5 and the “Binding of serum 6 to looped/cyclic peptide (PEPSCAN-ELISA)” value stood at 1.0. In experiment [1], the “Binding of serum 37 to linear peptides of protein X1 of SARS-CoV Urbani” value is recorded as 0.7, the “Binding of serum 37 to looped/cyclic peptide (PEPSCAN-ELISA)” value was 0.4, the “Binding of serum 62 to linear peptides of protein X1 of SARS-CoV Urbani” value was 0.7 and the “Binding of serum 62 to looped/cyclic peptide (PEPSCAN-ELISA)” value turned out to be 0.5. Moreover, in experiment [1], the “Binding of serum London to linear peptides of protein X1 of SARS-CoV Urbani” value came out at 0.3, the “Binding of serum London to looped/cyclic peptide (PEPSCAN-ELISA)” value amounted to 0.8, the “Binding of serum SARS-green to linear peptides of protein X1 of SARS-CoV Urbani” value is reported as 0.6 and the “Binding of serum SARS-green to looped/cyclic peptide (PEPSCAN-ELISA)” value amounted to 0.4. Besides, in experiment [1], the “Binding of serum SARS-yellow to linear peptides of protein X1 of SARS-CoV Urbani” value came to 0.5 and the “Binding of serum SARS-yellow to looped/cyclic peptide (PEPSCAN-ELISA)” value is 0.5. In addition, in experiment [2], the “Binding of a rabbit serum to linear peptides” value was determined as 0.5 and the “Binding of a rabbit serum to looped peptides” value was found to be 0.5. Further, in experiment [3], the “Binding of Control Serum Blood-Bank to Looped peptides” value stood at 0.6, the “Binding of Control serum Blood-bank to linear peptides” value is on record as 0.7, the “Binding of Control serum LUMC to linear peptides” value is listed as 0.6 and the “Binding of Control serum LUMC to looped peptides” value was 0.6.
